{
  "source": "paper PMC9898036",
  "about": "“VIP152 is a selective CDK9 inhibitor with pre-clinical in vitro and in vivo efficacy in chronic lymphocytic leukemia” (Leukemia, 2022)",
  "experiment_in_all_cases": "DiscoverX KINOMEscan kinase profiling (468 assays)",
  "format_in_all_cases": "binding",
  "key": {"human kinome [1]": {"target": "human kinome (Homo sapiens, UniProt O15075)", "conditions": "DCAMKL1 (Entrez DCLK1); 100 nM; read-out: Percent Control", "protocol": "(§1) Kinomescan Kinase Profiling Assay\n(§2) Kinomescan Assay was performed at DiscoverRX and described in Fabian, et al. 2005, Nat.\n(§3) Biotechnol. In brief, kinases were produced and subsequently tagged with DNA for qPCR detection.\n(§4) Streptavidin-coated magnetic beads were bound to biotinylated kinase ligands to serve as a solid support.\n(§5) VIP152 was dissolved in DMSO and tested across a 10 serial threefold dilution set and compared to a test\n(§6) compound and a DMSO control.\n(§7) Kinome map was produced via TreeSpot\n(§8) Analysis from DiscoverRX. […]"}, "human kinome [2]": {"target": "human kinome (Homo sapiens, UniProt O15146)", "conditions": "MUSK; 100 nM; read-out: Percent Control", "protocol": "as §1, §2, §3, §4, §5, §6, §7, §8"}, "human kinome [3]": {"target": "human kinome (Homo sapiens, UniProt O15197)", "sequence (O15197 32-1021)": "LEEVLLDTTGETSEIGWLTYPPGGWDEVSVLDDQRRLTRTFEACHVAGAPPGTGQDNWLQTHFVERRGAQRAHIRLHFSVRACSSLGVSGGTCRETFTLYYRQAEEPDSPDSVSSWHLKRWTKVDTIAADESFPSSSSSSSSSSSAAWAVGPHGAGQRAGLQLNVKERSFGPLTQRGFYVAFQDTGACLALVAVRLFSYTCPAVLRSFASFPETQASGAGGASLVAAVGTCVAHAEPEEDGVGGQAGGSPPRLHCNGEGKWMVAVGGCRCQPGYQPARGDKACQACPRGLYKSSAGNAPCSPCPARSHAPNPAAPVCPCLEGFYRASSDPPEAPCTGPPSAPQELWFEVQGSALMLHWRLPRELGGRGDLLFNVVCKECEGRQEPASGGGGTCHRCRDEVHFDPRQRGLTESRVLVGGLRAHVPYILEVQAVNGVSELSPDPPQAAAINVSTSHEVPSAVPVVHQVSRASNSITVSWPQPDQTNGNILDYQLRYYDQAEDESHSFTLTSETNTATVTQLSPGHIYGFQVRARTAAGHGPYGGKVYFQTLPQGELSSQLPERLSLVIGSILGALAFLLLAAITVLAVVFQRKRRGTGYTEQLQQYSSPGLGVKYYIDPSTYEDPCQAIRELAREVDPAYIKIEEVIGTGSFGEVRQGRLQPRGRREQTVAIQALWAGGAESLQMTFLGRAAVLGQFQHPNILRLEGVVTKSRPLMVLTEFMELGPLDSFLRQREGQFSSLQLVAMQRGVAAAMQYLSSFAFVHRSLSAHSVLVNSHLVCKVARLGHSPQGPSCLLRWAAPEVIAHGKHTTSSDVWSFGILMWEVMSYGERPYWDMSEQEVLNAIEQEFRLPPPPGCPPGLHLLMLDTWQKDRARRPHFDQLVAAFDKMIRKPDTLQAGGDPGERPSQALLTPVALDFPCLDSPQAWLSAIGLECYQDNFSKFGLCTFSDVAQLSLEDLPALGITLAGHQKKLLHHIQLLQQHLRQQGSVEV", "conditions": "EPHB6; 100 nM; read-out: Percent Control", "protocol": "as §1, §2, §3, §4, §5, §6, §7, §8"}, "human kinome [4]": {"target": "human kinome (Homo sapiens, UniProt P00533, DEL752-759)", "conditions": "EGFR(S752-I759del); 100 nM; read-out: Percent Control", "protocol": "as §1, §2, §3, §4, §5, §6, §7, §8"}, "human kinome [5]": {"target": "human kinome (Homo sapiens, UniProt P10721, D816H)", "conditions": "KIT(D816H); 100 nM; read-out: Percent Control", "protocol": "as §1, §2, §3, §4, §5, §6, §7, §8"}, "human kinome [6]": {"target": "human kinome (Homo sapiens, UniProt P12931)", "conditions": "kinase SRC (Entrez SRC); compound concentration 1000 nM; read-out: Percent Control", "protocol": "as §1, §2, §3, §4, §5, §6, §7, §8"}, "human kinome [7]": {"target": "human kinome (Homo sapiens, UniProt P24723)", "sequence (P24723 whole entry)": "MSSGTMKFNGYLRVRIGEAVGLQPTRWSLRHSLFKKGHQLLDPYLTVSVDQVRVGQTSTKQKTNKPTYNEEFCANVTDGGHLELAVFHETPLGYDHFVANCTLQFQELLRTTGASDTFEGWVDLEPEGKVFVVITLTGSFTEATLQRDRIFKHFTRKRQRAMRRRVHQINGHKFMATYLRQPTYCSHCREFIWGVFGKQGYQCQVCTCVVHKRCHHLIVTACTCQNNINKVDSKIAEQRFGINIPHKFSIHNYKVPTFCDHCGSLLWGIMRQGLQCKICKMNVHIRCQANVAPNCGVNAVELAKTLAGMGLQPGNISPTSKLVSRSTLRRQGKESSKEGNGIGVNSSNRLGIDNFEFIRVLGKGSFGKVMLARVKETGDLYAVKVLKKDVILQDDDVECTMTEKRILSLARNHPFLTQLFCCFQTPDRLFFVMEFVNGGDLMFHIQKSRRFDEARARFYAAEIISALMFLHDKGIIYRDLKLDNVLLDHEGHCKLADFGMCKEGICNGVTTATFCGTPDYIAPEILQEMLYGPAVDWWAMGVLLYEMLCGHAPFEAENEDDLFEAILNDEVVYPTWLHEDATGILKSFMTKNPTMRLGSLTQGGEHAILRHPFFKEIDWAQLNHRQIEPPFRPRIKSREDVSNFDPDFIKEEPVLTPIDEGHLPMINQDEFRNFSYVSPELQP", "conditions": "read-out: Percent Control", "protocol": "as §1, §2, §3, §4, §5, §6, §7, §8"}, "human kinome [8]": {"target": "human kinome (Homo sapiens, UniProt P32298)", "conditions": "GRK4; 100 nM; read-out: Percent Control", "protocol": "as §1, §2, §3, §4, §5, §6, §7, §8"}, "human kinome [9]": {"target": "human kinome (Homo sapiens, UniProt P35590)", "conditions": "kinase TIE1 (Entrez TIE1); compound concentration 1000 nM; read-out: Percent Control", "protocol": "as §1, §2, §3, §4, §5, §6, §7, §8"}, "human kinome [10]": {"target": "human kinome (Homo sapiens, UniProt P36888)", "sequence (P36888 27-993)": "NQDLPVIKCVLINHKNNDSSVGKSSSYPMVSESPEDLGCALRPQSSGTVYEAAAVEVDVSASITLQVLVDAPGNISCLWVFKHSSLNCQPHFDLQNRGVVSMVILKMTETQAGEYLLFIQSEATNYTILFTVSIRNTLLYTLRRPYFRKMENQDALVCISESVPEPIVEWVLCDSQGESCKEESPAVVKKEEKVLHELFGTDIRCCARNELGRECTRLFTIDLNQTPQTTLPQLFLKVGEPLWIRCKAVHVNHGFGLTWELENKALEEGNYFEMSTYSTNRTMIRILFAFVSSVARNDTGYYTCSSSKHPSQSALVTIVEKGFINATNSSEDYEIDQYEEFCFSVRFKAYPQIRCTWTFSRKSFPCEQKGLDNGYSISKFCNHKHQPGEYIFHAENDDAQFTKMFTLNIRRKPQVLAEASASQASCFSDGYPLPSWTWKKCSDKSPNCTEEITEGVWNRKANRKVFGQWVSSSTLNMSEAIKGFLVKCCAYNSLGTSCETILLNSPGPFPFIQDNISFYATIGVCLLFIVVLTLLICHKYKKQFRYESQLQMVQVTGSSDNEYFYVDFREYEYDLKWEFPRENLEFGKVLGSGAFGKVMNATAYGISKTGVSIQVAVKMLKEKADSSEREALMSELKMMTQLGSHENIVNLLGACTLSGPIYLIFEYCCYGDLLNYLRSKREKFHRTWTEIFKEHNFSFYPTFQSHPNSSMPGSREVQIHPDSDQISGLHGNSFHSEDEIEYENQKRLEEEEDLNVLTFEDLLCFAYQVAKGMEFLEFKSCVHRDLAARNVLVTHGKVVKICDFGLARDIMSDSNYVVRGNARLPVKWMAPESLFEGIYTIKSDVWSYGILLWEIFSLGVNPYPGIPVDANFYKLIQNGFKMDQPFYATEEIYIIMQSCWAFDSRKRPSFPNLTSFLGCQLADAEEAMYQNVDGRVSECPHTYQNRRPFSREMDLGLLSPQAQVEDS", "conditions": "100 nM, read-out: Percent Control", "protocol": "as §1, §2, §3, §4, §5, §6, §7, §8"}, "human kinome [11]": {"target": "human kinome (Homo sapiens, UniProt P42679)", "conditions": "CTK (Entrez MATK); 100 nM; read-out: Percent Control", "protocol": "as §1, §2, §3, §4, §5, §6, §7, §8"}, "human kinome [12]": {"target": "human kinome (Homo sapiens, UniProt P49841)", "conditions": "GSK3B; 100 nM; read-out: Percent Control", "protocol": "as §1, §2, §3, §4, §5, §6, §7, §8"}, "human kinome [13]": {"target": "human kinome (Homo sapiens, UniProt P51957)", "sequence (P51957 whole entry)": "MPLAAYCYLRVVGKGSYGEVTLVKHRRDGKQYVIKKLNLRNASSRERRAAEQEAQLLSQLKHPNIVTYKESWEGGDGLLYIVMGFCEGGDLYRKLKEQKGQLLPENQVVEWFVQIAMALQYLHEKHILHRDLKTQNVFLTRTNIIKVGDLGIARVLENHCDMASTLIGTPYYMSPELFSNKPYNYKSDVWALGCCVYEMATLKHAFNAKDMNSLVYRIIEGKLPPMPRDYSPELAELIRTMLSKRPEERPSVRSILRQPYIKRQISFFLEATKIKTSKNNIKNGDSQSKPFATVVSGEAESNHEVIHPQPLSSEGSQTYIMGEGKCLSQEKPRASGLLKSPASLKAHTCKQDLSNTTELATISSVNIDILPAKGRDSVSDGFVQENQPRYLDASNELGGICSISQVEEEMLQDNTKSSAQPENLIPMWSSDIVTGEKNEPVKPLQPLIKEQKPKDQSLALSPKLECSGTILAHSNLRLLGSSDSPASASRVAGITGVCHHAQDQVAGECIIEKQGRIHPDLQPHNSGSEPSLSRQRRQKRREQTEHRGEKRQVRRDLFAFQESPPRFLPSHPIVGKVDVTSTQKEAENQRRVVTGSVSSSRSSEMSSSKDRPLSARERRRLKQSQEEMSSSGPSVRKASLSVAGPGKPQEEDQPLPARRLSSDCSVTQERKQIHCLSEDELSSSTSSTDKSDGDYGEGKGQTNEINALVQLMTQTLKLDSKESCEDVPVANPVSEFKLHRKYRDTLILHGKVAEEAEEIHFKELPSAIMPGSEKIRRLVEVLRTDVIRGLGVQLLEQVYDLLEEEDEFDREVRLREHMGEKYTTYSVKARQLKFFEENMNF", "conditions": "read-out: Percent Control", "protocol": "as §1, §2, §3, §4, §5, §6, §7, §8"}, "human kinome [14]": {"target": "human kinome (Homo sapiens, UniProt P54760)", "conditions": "EPHB4; 100 nM; read-out: Percent Control", "protocol": "as §1, §2, §3, §4, §5, §6, §7, §8"}, "human kinome [15]": {"target": "human kinome (Homo sapiens, UniProt P78362)", "sequence (P78362 whole entry)": "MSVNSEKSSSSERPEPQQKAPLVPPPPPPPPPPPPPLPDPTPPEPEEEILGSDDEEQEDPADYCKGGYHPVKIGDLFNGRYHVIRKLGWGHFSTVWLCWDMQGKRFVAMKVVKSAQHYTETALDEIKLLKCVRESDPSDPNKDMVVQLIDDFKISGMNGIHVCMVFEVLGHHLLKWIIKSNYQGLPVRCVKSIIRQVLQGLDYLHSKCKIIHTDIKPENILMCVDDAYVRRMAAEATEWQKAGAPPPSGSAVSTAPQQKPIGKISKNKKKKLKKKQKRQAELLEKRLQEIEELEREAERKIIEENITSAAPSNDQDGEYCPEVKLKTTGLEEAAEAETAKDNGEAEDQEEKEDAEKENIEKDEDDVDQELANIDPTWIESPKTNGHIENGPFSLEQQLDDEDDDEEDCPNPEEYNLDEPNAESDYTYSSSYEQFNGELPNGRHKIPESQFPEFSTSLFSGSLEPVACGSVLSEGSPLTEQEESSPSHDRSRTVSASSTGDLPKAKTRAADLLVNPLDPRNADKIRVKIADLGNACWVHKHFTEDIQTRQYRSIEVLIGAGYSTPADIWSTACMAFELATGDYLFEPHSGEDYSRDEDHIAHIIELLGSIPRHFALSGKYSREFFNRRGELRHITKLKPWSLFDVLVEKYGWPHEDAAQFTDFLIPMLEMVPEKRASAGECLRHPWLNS", "conditions": "kinase SRPK2 (Entrez SRPK2); compound concentration 1000 nM; read-out: Percent Control", "protocol": "as §1, §2, §3, §4, §5, §6, §7, §8"}, "human kinome [16]": {"target": "human kinome (Homo sapiens, UniProt Q02779)", "conditions": "MLK2 (Entrez MAP3K10); 100 nM; read-out: Percent Control", "protocol": "as §1, §2, §3, §4, §5, §6, §7, §8"}, "human kinome [17]": {"target": "human kinome (Homo sapiens, UniProt Q08345)", "conditions": "DDR1; 100 nM; read-out: Percent Control", "protocol": "as §1, §2, §3, §4, §5, §6, §7, §8"}, "human kinome [18]": {"target": "human kinome (Homo sapiens, UniProt Q13163)", "sequence (Q13163 whole entry)": "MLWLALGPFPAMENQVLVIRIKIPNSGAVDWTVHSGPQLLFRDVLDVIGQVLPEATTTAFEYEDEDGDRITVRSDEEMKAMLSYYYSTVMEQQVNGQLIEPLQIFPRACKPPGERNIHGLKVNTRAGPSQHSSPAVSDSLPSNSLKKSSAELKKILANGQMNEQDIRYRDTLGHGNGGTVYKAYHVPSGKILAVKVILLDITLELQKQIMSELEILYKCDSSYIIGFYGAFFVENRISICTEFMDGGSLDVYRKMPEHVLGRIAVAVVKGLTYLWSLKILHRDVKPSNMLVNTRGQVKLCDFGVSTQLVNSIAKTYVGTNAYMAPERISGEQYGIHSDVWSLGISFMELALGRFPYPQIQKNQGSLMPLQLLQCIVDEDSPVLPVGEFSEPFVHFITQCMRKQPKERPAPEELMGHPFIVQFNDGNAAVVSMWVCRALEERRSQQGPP", "conditions": "MEK5 (Entrez MAP2K5); 100 nM; read-out: Percent Control", "protocol": "as §1, §2, §3, §4, §5, §6, §7, §8"}, "human kinome [19]": {"target": "human kinome (Homo sapiens, UniProt Q13546)", "conditions": "kinase RIPK1 (Entrez RIPK1); compound concentration 1000 nM; read-out: Percent Control", "protocol": "as §1, §2, §3, §4, §5, §6, §7, §8"}, "human kinome [20]": {"target": "human kinome (Homo sapiens, UniProt Q13557)", "conditions": "CAMK2D; 100 nM; read-out: Percent Control", "protocol": "as §1, §2, §3, §4, §5, §6, §7, §8"}, "human kinome [21]": {"target": "human kinome (Homo sapiens, UniProt Q15831)", "sequence (Q15831 whole entry)": "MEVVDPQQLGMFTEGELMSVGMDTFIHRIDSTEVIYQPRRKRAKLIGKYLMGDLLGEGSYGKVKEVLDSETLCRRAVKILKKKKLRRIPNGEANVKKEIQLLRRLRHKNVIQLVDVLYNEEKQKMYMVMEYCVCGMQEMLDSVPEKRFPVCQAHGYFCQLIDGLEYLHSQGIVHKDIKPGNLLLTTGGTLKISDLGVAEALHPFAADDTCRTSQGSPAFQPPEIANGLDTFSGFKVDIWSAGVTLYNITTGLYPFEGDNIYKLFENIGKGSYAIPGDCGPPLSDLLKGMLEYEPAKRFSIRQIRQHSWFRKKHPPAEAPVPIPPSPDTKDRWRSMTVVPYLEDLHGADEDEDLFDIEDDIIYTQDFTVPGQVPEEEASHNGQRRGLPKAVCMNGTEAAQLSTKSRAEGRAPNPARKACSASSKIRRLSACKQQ", "conditions": "LKB1 (Entrez STK11); 100 nM; read-out: Percent Control", "protocol": "as §1, §2, §3, §4, §5, §6, §7, §8"}, "human kinome [22]": {"target": "human kinome (Homo sapiens, UniProt Q6XUX3)", "conditions": "kinase RIPK5 (Entrez DSTYK); compound concentration 1000 nM; read-out: Percent Control", "protocol": "as §1, §2, §3, §4, §5, §6, §7, §8"}, "human kinome [23]": {"target": "human kinome (Homo sapiens, UniProt Q86UE8)", "conditions": "kinase TLK2 (Entrez TLK2); compound concentration 1000 nM; read-out: Percent Control", "protocol": "as §1, §2, §3, §4, §5, §6, §7, §8"}, "human kinome [24]": {"target": "human kinome (Homo sapiens, UniProt Q8IVH8)", "conditions": "MAP4K3; 100 nM; read-out: Percent Control", "protocol": "as §1, §2, §3, §4, §5, §6, §7, §8"}, "human kinome [25]": {"target": "human kinome (Homo sapiens, UniProt Q8IYT8)", "conditions": "kinase ULK2 (Entrez ULK2); compound concentration 1000 nM; read-out: Percent Control", "protocol": "as §1, §2, §3, §4, §5, §6, §7, §8"}, "human kinome [26]": {"target": "human kinome (Homo sapiens, UniProt Q8NFD2)", "conditions": "ANKK1; 100 nM; read-out: Percent Control", "protocol": "as §1, §2, §3, §4, §5, §6, §7, §8"}, "human kinome [27]": {"target": "human kinome (Homo sapiens, UniProt Q8TD08)", "conditions": "ERK8 (Entrez MAPK15); 100 nM; read-out: Percent Control", "protocol": "as §1, §2, §3, §4, §5, §6, §7, §8"}, "human kinome [28]": {"target": "human kinome (Homo sapiens, UniProt Q8TDR2)", "conditions": "kinase STK35 (Entrez STK35); compound concentration 1000 nM; read-out: Percent Control", "protocol": "as §1, §2, §3, §4, §5, §6, §7, §8"}, "human kinome [29]": {"target": "human kinome (Homo sapiens, UniProt Q9H3Y6)", "conditions": "kinase SRMS (Entrez SRMS); compound concentration 1000 nM; read-out: Percent Control", "protocol": "as §1, §2, §3, §4, §5, §6, §7, §8"}, "human kinome [30]": {"target": "human kinome (Homo sapiens, UniProt Q9UM73, L1196M)", "conditions": "ALK(L1196M); 100 nM; read-out: Percent Control", "protocol": "as §1, §2, §3, §4, §5, §6, §7, §8"}},
  "note": "Where two headings read alike, the source gives them in different places.",
  "data": [
    {"smiles": "COc1cc(F)ccc1-c1cc(Nc2cc(CS(C)(=N)=O)ccn2)ncc1F", "note": "(stereo not drawn) [VIP152]", "values": [
      {"measurement": "remaining binding at 0.1 µM", "setting": "human kinome [1]", "result": 91, "unit": "%"},
      {"measurement": "remaining binding at 0.1 µM", "setting": "human kinome [2]", "result": 99, "unit": "%"},
      {"measurement": "remaining binding at 0.1 µM", "setting": "human kinome [3]", "result": 87, "unit": "%"},
      {"measurement": "remaining binding at 0.1 µM", "setting": "human kinome [4]", "result": 100, "unit": "%"},
      {"measurement": "remaining binding at 0.1 µM", "setting": "human kinome [5]", "result": 100, "unit": "%"},
      {"measurement": "remaining binding at 1 µM", "setting": "human kinome [6]", "result": 83, "unit": "%"},
      {"measurement": "remaining binding at 0.1 µM", "setting": "human kinome [7]; PRKCH, 100 nM", "result": 100, "unit": "%"},
      {"measurement": "remaining binding at 1 µM", "setting": "human kinome [7]; kinase PRKCH (Entrez PRKCH), compound concentration 1000 nM", "result": 94, "unit": "%"},
      {"measurement": "remaining binding at 0.1 µM", "setting": "human kinome [8]", "result": 88, "unit": "%"},
      {"measurement": "remaining binding at 1 µM", "setting": "human kinome [9]", "result": 76, "unit": "%"},
      {"measurement": "remaining binding at 0.1 µM", "setting": "human kinome [10]; FLT3-autoinhibited", "result": 99, "unit": "%"},
      {"measurement": "remaining binding at 0.1 µM", "setting": "human kinome [10]; FLT3", "result": 72, "unit": "%"},
      {"measurement": "remaining binding at 0.1 µM", "setting": "human kinome [11]", "result": 95, "unit": "%"},
      {"measurement": "remaining binding at 0.1 µM", "setting": "human kinome [12]", "result": 72, "unit": "%"},
      {"measurement": "remaining binding at 0.1 µM", "setting": "human kinome [13]; NEK4, 100 nM", "result": 100, "unit": "%"},
      {"measurement": "remaining binding at 1 µM", "setting": "human kinome [13]; kinase NEK4 (Entrez NEK4), compound concentration 1000 nM", "result": 100, "unit": "%"},
      {"measurement": "remaining binding at 0.1 µM", "setting": "human kinome [14]", "result": 100, "unit": "%"},
      {"measurement": "remaining binding at 1 µM", "setting": "human kinome [15]", "result": 89, "unit": "%"},
      {"measurement": "remaining binding at 0.1 µM", "setting": "human kinome [16]", "result": 100, "unit": "%"},
      {"measurement": "remaining binding at 0.1 µM", "setting": "human kinome [17]", "result": 99, "unit": "%"},
      {"measurement": "remaining binding at 0.1 µM", "setting": "human kinome [18]", "result": 100, "unit": "%"},
      {"measurement": "remaining binding at 1 µM", "setting": "human kinome [19]", "result": 79, "unit": "%"},
      {"measurement": "remaining binding at 0.1 µM", "setting": "human kinome [20]", "result": 100, "unit": "%"},
      {"measurement": "remaining binding at 0.1 µM", "setting": "human kinome [21]", "result": 100, "unit": "%"},
      {"measurement": "remaining binding at 1 µM", "setting": "human kinome [22]", "result": 42, "unit": "%"},
      {"measurement": "remaining binding at 1 µM", "setting": "human kinome [23]", "result": 98, "unit": "%"},
      {"measurement": "remaining binding at 0.1 µM", "setting": "human kinome [24]", "result": 100, "unit": "%"},
      {"measurement": "remaining binding at 1 µM", "setting": "human kinome [25]", "result": 97, "unit": "%"},
      {"measurement": "remaining binding at 0.1 µM", "setting": "human kinome [26]", "result": 100, "unit": "%"},
      {"measurement": "remaining binding at 0.1 µM", "setting": "human kinome [27]", "result": 94, "unit": "%"},
      {"measurement": "remaining binding at 1 µM", "setting": "human kinome [28]", "result": 95, "unit": "%"},
      {"measurement": "remaining binding at 1 µM", "setting": "human kinome [29]", "result": 83, "unit": "%"},
      {"measurement": "remaining binding at 0.1 µM", "setting": "human kinome [30]", "result": 100, "unit": "%"}
    ]}
  ]
}
